Our source for the MIC values is patent publication US20120214760A1, “TREATMENT OF URINARY TRACT INFECTIONS WITH ANTIBACTERIAL AMINOGLYCOSIDE COMPOUNDS” (Achaogen, Inc., priority 2009, published 2012).

For experiment [1], the system named is E. coli ATCC 25922 (AECO001). Kind of experiment: MIC, CLSI broth microdilution. Particulars: Escherichia coli. Format: cell-based. In a few lines:
(§1)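 CLSI M7-A7 broth microdilution; 2-fold serial dilutions in Mueller Hinton Broth, 1:1 with inoculum; final 5×10^5 CFU/mL; 35° C., 20 h, ambient air. QC strains E. coli ATCC 25922, P. aeruginosa ATCC 27853, S. aureus ATCC 29213.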
In general terms: Dilution methods test growth across graded concentrations, often in twofold steps.

Experiment [2] has as its system P. aeruginosa ATCC 27853 (APAE001). Kind of experiment: MIC, CLSI broth microdilution. Format: cell-based. Conditions: Pseudomonas aeruginosa. In short, it runs like this: as §1
The mark [3] stands for this setting: ATCC25922, read-out: MIC AECO001, Table 1, AECO001 is ATCC25922.
Where [4] appears, read: ATCC27853, read-out: MIC APAE001, Table 1, APAE001 is ATCC27853.
The mark [5] stands for this setting: ATCC25922, Table 2, read-out: MIC E. coli.
[6] abbreviates: Table 1, AECO001 is ATCC25922, read-out: MIC AECO001.
Setting [7] is: ATCC27853, Table 2, read-out: MIC P. aeruginosa.

Molecules are shown by their SMILES. Values after ≈ are worked out from the molar mass of the structure shown. Where two headings read alike, the source gives them in different places.

`CN[C@@H]1[C@@H](O)[C@@H](O[C@@H]2[C@@H](O)[C@H](O[C@H]3OC(CNCC(O)CO)=CC[C@H]3N)[C@@H](N)C[C@H]2NC(=O)[C@@H](O)CCN)OC[C@]1(C)O` (stereo partly drawn) [Example 19, 6′-(2-Hydroxy-propanol)-1-(4-amino-2(S)-hydroxy-butyryl)-sisomicin]: the MIC (in general, the least concentration at which growth counts as inhibited) in experiment [1] (setting [3]) was < 1 µg/mL; in experiment [2] (setting [4]) it was 1 to 16 µg/mL (≈ 1.61 to 25.7 µM).
The matching figures for `CN[C@@H]1[C@@H](O)[C@@H](O[C@@H]2[C@@H](O)[C@H](O[C@H]3OC(CNCCO)=CC[C@H]3N)[C@@H](N)C[C@H]2NC(=O)CO)OC[C@]1(C)O` [Example 25, 6′-(2-Hydroxy-ethyl)-1-(2-hydroxy-acetyl)-sisomicin]: 1 to 16 µg/mL (≈ 1.82 to 29.1 µM) and 1 to 16 µg/mL (≈ 1.82 to 29.1 µM).
For `CN[C@@H]1[C@@H](O)[C@@H](O[C@@H]2[C@@H](O)[C@H](O[C@H]3OC(CN)=CC[C@H]3NC(=O)C(C)N)[C@@H](N)C[C@H]2NC(=O)[C@@H](O)CCN)OC[C@]1(C)O` (stereo partly drawn) [Example 88, 2′-(2-Amino-propionyl)-1-(4-amino-2(S)-hydroxy-butyryl)-sisomicin], the MIC in experiment [1] (setting [3]) and in experiment [2] (setting [4]) was 1 to 16 µg/mL (≈ 1.61 to 25.8 µM) throughout.
On to `CN[C@@H]1[C@@H](O)[C@@H](O[C@@H]2[C@@H](O)[C@H](O[C@H]3OC(CN)=CC[C@H]3NCCCN)[C@@H](N)C[C@H]2NC(=O)[C@@H](O)CCN)OC[C@]1(C)O` [Example 91, 2′-(3-Amino-propyl)-1-(4-amino-2(S)-hydroxy-butyryl)-sisomicin], for which the MIC in experiment [1] (setting [3]) and in experiment [2] (setting [4]) was < 1 µg/mL each time.
`CN[C@@H]1[C@@H](O)[C@@H](O[C@@H]2[C@@H](O)[C@H](O[C@H]3OC(CNCC(O)CCN)=CC[C@H]3N)[C@@H](N)C[C@H]2NC(=O)[C@@H](O)CN)OC[C@]1(C)O` (stereo partly drawn) [Example 68, 6′-(2-Hydroxy-4-amino-butyl)-1-(3-amino-2(S)-hydroxy-propionyl)-sisomicin]: the MIC in experiment [1] (setting [3]) and in experiment [2] (setting [4]) was 1 to 16 µg/mL (≈ 1.61 to 25.7 µM) each time.
In the case of `CN[C@@H]1[C@@H](O)[C@@H](O[C@@H]2[C@@H](O)[C@H](O[C@H]3OC(CNCC(O)CO)=CC[C@H]3N)[C@@H](N)C[C@H]2NC(=O)[C@H](O)CCN)OC[C@]1(C)O` (stereo partly drawn) [Example 3, 6′-(2-Hydroxy-propanol)-1-(4-amino-2(R)-hydroxy-butyryl)-sisomicin], the figures for the MIC in experiment [1] (setting [3]) and in experiment [2] (setting [4]) were 1 to 16 µg/mL (≈ 1.61 to 25.7 µM) and > 16 µg/mL, respectively.
The matching figures for `CN[C@@H]1[C@@H](O)[C@@H](O[C@@H]2[C@@H](O)[C@H](O[C@H]3OC(CNCC(O)CO)=CC[C@H]3N)[C@@H](N)C[C@H]2NC(=O)CO)OC[C@]1(C)O` (stereo partly shown) [Example 23, 6′-(2-Hydroxy-propanol)-1-(2-hydroxy-acetyl)-sisomicin]: > 16 µg/mL and > 16 µg/mL.
For `CN[C@@H]1[C@@H](O)[C@@H](O[C@@H]2[C@@H](O)[C@H](O[C@H]3OC(CNCCO)=CC[C@H]3N)[C@@H](N)C[C@H]2NC(=O)C2(O)CNC2)OC[C@]1(C)O` [Example 37], in that order: < 1 µg/mL and 1 to 16 µg/mL (≈ 1.69 to 27.1 µM).
For `CN[C@@H]1[C@@H](O)[C@@H](O[C@@H]2[C@@H](O)[C@H](O[C@H]3OC(CNC[C@H]4C[C@H](N)C4)=CC[C@H]3NC(=N)N)[C@@H](N)C[C@H]2N)OC[C@]1(C)O` [Example 107, 6′-(Methyl-trans-3-amino-cyclobutyl)-2′-guanidinium-sisomicin], in that order: 1 to 16 µg/mL (≈ 1.75 to 27.9 µM) and < 1 µg/mL.
As to `CN[C@@H]1[C@@H](O)[C@@H](O[C@@H]2[C@@H](O)[C@H](O[C@H]3OC(CNCCCC(O)CN)=CC[C@H]3N)[C@@H](N)C[C@H]2NC(=O)[C@@H](O)CN)OC[C@]1(C)O` (stereo partly drawn) [Example 80, 6′-(4-Hydroxy-5-amino-pentyl)-1-(3-amino-2(S)-hydroxy-propionyl)-sisomicin], the MIC in experiment [1] (setting [3]) and in experiment [2] (setting [4]) was < 1 µg/mL in each case.
For `CN[C@@H]1[C@@H](O)[C@@H](O[C@@H]2[C@@H](O)[C@H](O[C@H]3OC(CNCCCO)=CC[C@H]3N)[C@@H](N)C[C@H]2NC(=O)[C@@H](O)CN)OC[C@]1(C)O` [Example 54, 6′-(3-Propanol)-1-(3-amino-2(S)-hydroxy-propionyl)-sisomicin], the MIC was < 1 µg/mL in experiment [1] (setting [3]) and 1 to 16 µg/mL (≈ 1.69 to 27 µM) in experiment [2] (setting [4]).
As for `CN[C@@H]1[C@@H](O)[C@@H](O[C@@H]2[C@@H](O)[C@H](O[C@H]3OC(CN)=CC[C@H]3NC(=N)N)[C@@H](N)C[C@H]2NC(=O)[C@@H](O)CCN)OC[C@]1(C)O` [Example 103, 2′-Guanidinium-1-(4-amino-2(S)-hydroxy-butyryl)-sisomicin], the MIC in experiment [1] (setting [5]), in experiment [1] (setting [6]) and in experiment [2] (setting [7]) was < 1 µg/mL throughout.
For `CN[C@@H]1[C@@H](O)[C@@H](O[C@@H]2[C@@H](O)[C@H](O[C@H]3OC(CNCC4CC4)=CC[C@H]3N)[C@@H](N)C[C@H]2NC(=O)C(O)C2CNC2)OC[C@]1(C)O` (stereo partly shown) [Example 71, 6′-Methylcyclopropyl-1-(2-(azetidin-3-yl)-2-hydroxy-acetyl)-sisomicin], the MIC is 1 to 16 µg/mL (≈ 1.63 to 26 µM) in experiment [1] (setting [3]) and > 16 µg/mL in experiment [2] (setting [4]).
For `CN[C@@H]1[C@@H](O)[C@@H](O[C@@H]2[C@@H](O)[C@H](O[C@H]3OC(CNCC4(O)CC(N)C4)=CC[C@H]3N)[C@@H](N)C[C@H]2NC(=O)C2(O)CNC2)OC[C@]1(C)O` (stereo partly shown) [Example 47], in that order: 1 to 16 µg/mL (≈ 1.55 to 24.8 µM) and 1 to 16 µg/mL (≈ 1.55 to 24.8 µM).
For `CN[C@@H]1[C@@H](O)[C@@H](O[C@@H]2[C@@H](O)[C@H](O[C@H]3OC(CN)=CC[C@H]3NC(=O)CC3CNCCO3)[C@@H](N)C[C@H]2NC(=O)[C@@H](O)CCN)OC[C@]1(C)O` (stereo partly drawn) [Example 92, 2′-(Morpholin-2-yl-acetyl)-1-(4-amino-2(S)-hydroxy-butyryl)-sisomicin], in that order: < 1 µg/mL and > 16 µg/mL.
For `CN[C@@H]1[C@@H](O)[C@@H](O[C@@H]2[C@@H](O)[C@H](O[C@H]3OC(CNCC4(O)CC(N)C4)=CC[C@H]3N)[C@@H](N)C[C@H]2NC(=O)[C@@H](O)CCN)OC[C@]1(C)O` (stereo partly shown) [Example 46], in that order: < 1 µg/mL and 1 to 16 µg/mL (≈ 1.54 to 24.7 µM).
With `CN[C@@H]1[C@@H](O)[C@@H](O[C@@H]2[C@@H](O)[C@H](O[C@H]3OC(CNC[C@H]4C[C@H](N)C4)=CC[C@H]3N)[C@@H](N)C[C@H]2NC(=O)C(O)C2CNC2)OC[C@]1(C)O` (stereo partly drawn) [Example 72, 6′-(Methyl-trans-3-amino-cyclobutyl)-1-(2-(azetidin-3-yl)-2-hydroxy-acetyl)-sisomicin], the MIC in experiment [1] (setting [3]) and in experiment [2] (setting [4]) was 1 to 16 µg/mL (≈ 1.55 to 24.9 µM) each time.
Take `CN[C@@H]1[C@@H](O)[C@@H](O[C@@H]2[C@@H](O)[C@H](O[C@H]3OC(CNCCCN)=CC[C@H]3N)[C@@H](N)C[C@H]2NC(=O)[C@H](O)CN)OC[C@]1(C)O` [Example 11, 6′-(3-Amino-propyl)-1-(3-amino-2(R)-hydroxy-propionyl)-sisomicin]: the MIC in experiment [1] (setting [3]) is < 1 µg/mL; in experiment [2] (setting [4]), 1 to 16 µg/mL (≈ 1.69 to 27 µM).
The matching figures for `CN[C@@H]1[C@@H](O)[C@@H](O[C@@H]2[C@@H](O)[C@H](O[C@H]3OC(CNCC(O)CN)=CC[C@H]3N)[C@@H](N)C[C@H]2NC(=O)C(O)C2CNC2)OC[C@]1(C)O` (stereo partly shown) [Example 82, 6′-(2-Hydroxy-3-amino-propyl)-1-(2-(azetidin-3-yl)-2-hydroxy-acetyl)-sisomicin]: 1 to 16 µg/mL (≈ 1.58 to 25.2 µM) and > 16 µg/mL.
The matching figures for `CN[C@@H]1[C@@H](O)[C@@H](O[C@@H]2[C@@H](O)[C@H](O[C@H]3OC(CNCCN)=CC[C@H]3N)[C@@H](N)C[C@H]2NC(=O)[C@@H](O)CCN)OC[C@]1(C)O` [Example 38, 6′-(2-Amino-ethyl)-1-(4-amino-2(S)-hydroxy-butyryl)-sisomicin]: < 1 µg/mL and 1 to 16 µg/mL (≈ 1.69 to 27 µM).
The matching figures for `CN[C@@H]1[C@@H](O)[C@@H](O[C@@H]2[C@@H](O)[C@H](O[C@H]3OC(CNCC4(CN)CC4)=CC[C@H]3N)[C@@H](N)C[C@H]2NC(=O)[C@@H](O)CN)OC[C@]1(C)O` [Example 66, 6′-(Methyl-1-aminomethyl-cyclopropyl)-1-(3-amino-2(S)-hydroxy-propionyl)-sisomicin]: < 1 µg/mL and 1 to 16 µg/mL (≈ 1.62 to 25.9 µM).
Take `CN[C@@H]1[C@@H](O)[C@@H](O[C@@H]2[C@@H](O)[C@H](O[C@H]3OC(CNC[C@@H]4C[C@H](N)CN4)=CC[C@H]3N)[C@@H](N)C[C@H]2NC(=O)[C@@H](O)CN)OC[C@]1(C)O` [Example 65, 6′-(Methyl-4(S)-amino-pyrrolidin-2(S)-yl)-1-(3-amino-2(S)-hydroxy-propionyl)-sisomicin]: the MIC in experiment [1] (setting [3]) and in experiment [2] (setting [4]) was 1 to 16 µg/mL (≈ 1.58 to 25.3 µM) each time.
On to `CN[C@@H]1[C@@H](O)[C@@H](O[C@@H]2[C@@H](O)[C@H](O[C@H]3OC(CNCC4CCNCC4)=CC[C@H]3N)[C@@H](N)C[C@H]2NC(=O)[C@@H](O)CN)OC[C@]1(C)O` [Example 15, 6′-(Methyl-piperidin-4-yl)-1-(3-amino-2(S)-hydroxy-propionyl)-sisomicin], for which the MIC in experiment [1] (setting [5]) is < 1 µg/mL; in experiment [1] (setting [6]), < 1 µg/mL; in experiment [2] (setting [7]), 1 to 16 µg/mL (≈ 1.58 to 25.3 µM).
As for `CN[C@@H]1[C@@H](O)[C@@H](O[C@@H]2[C@@H](O)[C@H](O[C@H]3OC(CNCC(N)CO)=CC[C@H]3N)[C@@H](N)C[C@H]2NC(=O)[C@@H](O)CCN)OC[C@]1(C)O` (stereo partly drawn) [Example 30, 6′-(2-Amino-propanol)-1-(4-amino-2(S)-hydroxy-butyryl)-sisomicin], the MIC in experiment [1] (setting [3]) was < 1 µg/mL; in experiment [2] (setting [4]) it was 1 to 16 µg/mL (≈ 1.61 to 25.7 µM).
For `CN[C@@H]1[C@@H](O)[C@@H](O[C@@H]2[C@@H](O)[C@H](O[C@H]3OC(CNCC(O)CCN)=CC[C@H]3N)[C@@H](N)C[C@H]2NC(=O)C(O)C2CNC2)OC[C@]1(C)O` (stereo partly shown) [Example 77, 6′-(2-Hydroxy-4-amino-butyl)-1-(2-(azetidin-3-yl)-2-hydroxy-acetyl)-sisomicin], in that order: 1 to 16 µg/mL (≈ 1.54 to 24.7 µM) and 1 to 16 µg/mL (≈ 1.54 to 24.7 µM).
